Molecular target: T1, human NaV 1.8 (Homo sapiens, UniProt Q9Y5Y9)
T1 construct: expressed in transfected cells; host or cells: HEK (recombinant cell line)
Assay: Automated whole-cell patch clamp (Qube384) voltage-clamp recordings of sodium currents in HEK-NaV1.8 cell line
Type: cell-based
Conditions: read-out: Potency category (human NaV 1.8 IC50)
Procedure: Electrophysiology: Voltage-Clamp Recordings
The following NaV1.8 recombinant cell line was used for recordings: HEK-NaV1.8 (NM_006514.1) with b3 (NM_018400.3).
Sodium currents were measured using the patch clamp technique in the whole-cell configuration using the Qube384 (Sophion A/S, Copenhagen, Denmark) automated voltage clamp platform. “Multi hole” plates were used for the cell line expressing NaV1.8 while “single hole” plates were used for the recombinant cell lines expressing the other subtypes. Appropriate filters (for minimum seal resistance and minimum current size) and series resistance compensation (for high quality sodium channel recordings) were applied. Data was collected at ambient room temperature or 19° C.
The recording extracellular solution contained (in mM): NaCl 145 mM, KCl 4 mM, CaCl2 2 mM, MgCl2 1 mM, HEPES 10 mM, Glucose 10 mM, pH 7.4 (NaOH). The intracellular recording solution contained (in mM): CsF 120 mM, CsCl 20 mM, NaCl 10 mM, EGTA 10 mM, HEPES 10 mM, pH 7.2 (CsOH). Currents were recorded at 25 kHz sampling frequency and filtered at 5 kHz. Series resistance compensation was applied at 65%.
Vehicle (VEH) is the control condition where cells are exposed to 0.3% DMSO without compound. All runs include VEH controls being exposed to the same voltage protocols to assess non-compound related phenomena such as run down and then used to isolate compound dependent effects on currents.
To check for state-dependent inhibition, the following voltage-sequence was applied every 20 seconds:
From a resting membrane potential of −120 mV, the first test pulse (P1; 20 ms to −10 mV) was applied to check for channels in the Resting State followed by a brief recovery (100 ms to −120 mV), then holding the membrane voltage to V1/2 (4 seconds at voltage to obtain half the channel at Rest and half Inactivated) with a subsequent second test pulse (P2; 20 ms to −10 mV) to check for channels in the Inactivated State, followed by another brief recovery (20 ms to −120 mV) and a final third test pulse (P3; 20 ms to −10 mV) to check for recovered channels.
To check for frequency-dependent inhibition, a 10 Hz protocol and a 20 Hz protocol were applied; namely,
From a resting membrane potential of −120 mV, 40-pulses (10 ms to −10 mV) was applied at 10 Hz (at 100 ms between pulses) and then at 20 Hz (at 50 ms between pulses).
Each parameter was recorded (P1, P2, P3, P40 from 10 Hz and P40 from 20 Hz) during a control period (lasting 5 minutes) when establishing the baseline and during compound period (lasting ~12 minutes) when test compound (or vehicle) was applied. For each parameter, the value at the end of the compound period was normalized to the vehicle baseline; as follows
To adjust for any variance in the Na^+ current signal during the compound period (owing to cumulative inactivation independent of compound or shifts in biophysics over time), a dedicated segment of the recording wells in each 384 plate were dedicated to having only vehicle exposure. These vehicle-only recordings were used to correct for any apparent “run-up” or “run-down” in the experiment.
The adjusted inhibition was calculated as follows: […]
Percent inhibition was determined and IC50 values were calculated using a 4 parameter logistic model within XLFit Software (IDBS, Boston MA): F
[formula] where A and B are the maximal and minimum inhibition respectively, C is the IC50 concentration and D is the (Hill) slope.

T1 sequence (Q9Y5Y9 whole entry): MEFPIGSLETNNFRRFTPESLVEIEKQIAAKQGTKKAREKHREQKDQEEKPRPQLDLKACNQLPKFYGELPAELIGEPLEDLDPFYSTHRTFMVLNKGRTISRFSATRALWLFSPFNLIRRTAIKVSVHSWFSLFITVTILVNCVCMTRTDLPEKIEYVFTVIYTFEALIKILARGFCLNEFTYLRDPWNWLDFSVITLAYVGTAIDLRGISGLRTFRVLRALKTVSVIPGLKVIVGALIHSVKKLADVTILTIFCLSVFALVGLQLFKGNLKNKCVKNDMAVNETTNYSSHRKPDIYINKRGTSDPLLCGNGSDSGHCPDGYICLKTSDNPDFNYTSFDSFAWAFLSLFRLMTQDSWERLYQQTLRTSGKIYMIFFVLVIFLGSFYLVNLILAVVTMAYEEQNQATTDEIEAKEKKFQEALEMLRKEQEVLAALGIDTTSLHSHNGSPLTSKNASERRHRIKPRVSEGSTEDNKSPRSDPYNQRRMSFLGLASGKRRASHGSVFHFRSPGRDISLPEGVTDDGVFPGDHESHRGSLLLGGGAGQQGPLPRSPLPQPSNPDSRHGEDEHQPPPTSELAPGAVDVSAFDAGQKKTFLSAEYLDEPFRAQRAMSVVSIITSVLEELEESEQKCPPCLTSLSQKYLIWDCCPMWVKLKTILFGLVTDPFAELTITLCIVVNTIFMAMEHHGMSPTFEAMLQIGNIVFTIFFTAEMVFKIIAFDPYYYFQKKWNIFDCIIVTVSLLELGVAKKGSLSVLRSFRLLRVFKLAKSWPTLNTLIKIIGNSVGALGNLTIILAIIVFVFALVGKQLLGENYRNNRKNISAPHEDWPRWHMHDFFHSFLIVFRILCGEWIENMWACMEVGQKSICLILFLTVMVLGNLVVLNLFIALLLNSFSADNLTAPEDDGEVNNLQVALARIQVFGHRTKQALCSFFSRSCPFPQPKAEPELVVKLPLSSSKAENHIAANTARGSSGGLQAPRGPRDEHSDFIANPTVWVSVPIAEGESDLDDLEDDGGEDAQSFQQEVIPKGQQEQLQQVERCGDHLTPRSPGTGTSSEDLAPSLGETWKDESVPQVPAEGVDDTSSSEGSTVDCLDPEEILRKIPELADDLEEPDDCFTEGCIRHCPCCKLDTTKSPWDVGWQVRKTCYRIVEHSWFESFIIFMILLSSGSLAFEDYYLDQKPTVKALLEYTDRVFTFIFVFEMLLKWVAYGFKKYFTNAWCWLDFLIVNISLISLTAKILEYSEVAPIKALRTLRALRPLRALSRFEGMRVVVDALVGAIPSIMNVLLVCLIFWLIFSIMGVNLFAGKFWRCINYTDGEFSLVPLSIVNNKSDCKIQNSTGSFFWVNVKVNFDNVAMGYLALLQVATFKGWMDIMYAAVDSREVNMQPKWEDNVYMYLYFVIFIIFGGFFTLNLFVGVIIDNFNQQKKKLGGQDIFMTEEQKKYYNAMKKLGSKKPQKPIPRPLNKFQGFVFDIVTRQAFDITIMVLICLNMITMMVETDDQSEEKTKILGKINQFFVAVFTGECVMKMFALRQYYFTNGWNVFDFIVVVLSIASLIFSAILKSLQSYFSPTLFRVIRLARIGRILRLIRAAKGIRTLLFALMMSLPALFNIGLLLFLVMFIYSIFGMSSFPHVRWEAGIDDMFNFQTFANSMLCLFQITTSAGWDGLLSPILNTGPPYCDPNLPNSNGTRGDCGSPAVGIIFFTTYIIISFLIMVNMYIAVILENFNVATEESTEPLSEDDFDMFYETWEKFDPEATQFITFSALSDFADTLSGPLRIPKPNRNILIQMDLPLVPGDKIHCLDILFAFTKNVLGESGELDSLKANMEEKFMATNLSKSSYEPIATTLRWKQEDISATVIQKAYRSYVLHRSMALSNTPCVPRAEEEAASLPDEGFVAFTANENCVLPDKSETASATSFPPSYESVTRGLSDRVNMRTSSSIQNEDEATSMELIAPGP

Compound | IC50
CC1(Cn2nc(C3CC3)c(C(F)(F)F)c2C(=O)Nc2ccnc(S(C)(=O)=NC[C@@H](O)CO)c2)CC(F)(F)C1 (stereo partly drawn) [Example 152, 3-Cyclopropyl-1-((3,3-difluoro-1-methylcyclobutyl)methyl)-N-(2-(N—((R)-2,3-dihydroxypropyl)-S-methylsulfonimidoyl)pyridin-4-yl)-4-(trifluoromethyl)-1H-pyrazole-5-carboxamide] | ≤ 100 nM
CC1(Cn2nc(C3(F)CC3)c(C(F)F)c2C(=O)Nc2ccc(F)c(S(C)(=N)=O)c2)CC(F)(F)C1 (single isomer, unassigned) [Example 133a, 1-((3,3-Difluoro-1-methylcyclobutyl)methyl)-4-(difluoromethyl)-N-(4-fluoro-3-(S-methylsulfonimidoyl)phenyl)-3-(1-fluorocyclopropyl)-1H-pyrazole-5-carboxamide] | ≤ 100 nM
CC(=O)N1CC2(CCC2Cn2nc(C3CC3)c(C(F)(F)F)c2C(=O)Nc2ccnc(S(C)(=N)=O)c2)C1 (single isomer, unassigned) [Example 140a, 1-((2-Acetyl-2-azaspiro[3.3]heptan-5-yl)methyl)-3-cyclopropyl-N-(2-(S-methylsulfonimidoyl)pyridin-4-yl)-4-(trifluoromethyl)-1H-pyrazole-5-carboxamide] | 100 to 1000 nM
CC1(Cn2nc(C3CC34CC4)c(C(F)(F)F)c2C(=O)Nc2ccnc(S(C)(=N)=O)c2)CC(F)(F)C1 (single isomer, unassigned) [Example 64a, 1-((3,3-difluoro-1-methylcyclobutyl)methyl)-N-(2-(S-methylsulfonimidoyl)pyridin-4-yl)-3-(spiro[2.2]pentan-1-yl)-4-(trifluoromethyl)-1H-pyrazole-5-carboxamide] | ≤ 100 nM
Cc1c(C(C)(F)F)nn(CC2(C)CC(F)(F)C2)c1C(=O)Nc1ccnc(S(C)(=N)=O)c1 (single isomer, unassigned) [Example 5a, 1-((3,3-difluoro-1-methylcyclobutyl)methyl)-3-(1,1-difluoroethyl)-4-methyl-N-(2-(S-methylsulfonimidoyl)pyridin-4-yl)-1H-pyrazole-5-carboxamide] | ≤ 100 nM
CC1(Cn2nc(C3CC34CC4)c(C(F)(F)F)c2C(=O)Nc2ccnc(S(C)(=N)=O)c2)CC(F)(F)C1 (single isomer, unassigned) [Example 64b, 1-((3,3-difluoro-1-methylcyclobutyl)methyl)-N-(2-(S-methylsulfonimidoyl)pyridin-4-yl)-3-(spiro[2.2]pentan-1-yl)-4-(trifluoromethyl)-1H-pyrazole-5-carboxamide] | ≤ 100 nM
CS(=N)(=O)c1cc(NC(=O)c2c(C(F)(F)F)c(C3CC3)nn2CC2CCC23CNC3)ccn1 (single isomer, unassigned) [Example 153c, 1-((2-Azaspiro[3.3]heptan-5-yl)methyl)-3-cyclopropyl-N-(2-(S-methylsulfonimidoyl)pyridin-4-yl)-4-(trifluoromethyl)-1H-pyrazole-5-carboxamide] | 1000 to 10000 nM
Cc1cc(NC(=O)c2c(C(F)(F)F)c(C3CC3)nn2CC2(C)CC(F)(F)C2)cc(S(C)(=N)=O)n1 (single isomer, unassigned) [Example 50b, 3-cyclopropyl-1-((3,3-difluoro-1-methylcyclobutyl)methyl)-N-(2-methyl-6-(S-methylsulfonimidoyl)pyridin-4-yl)-4-(trifluoromethyl)-1H-pyrazole-5-carboxamide] | ≤ 100 nM
CC1(Cn2nc(C3CC3)c(C(F)(F)F)c2C(=O)Nc2cncc(S(C)(=N)=O)c2)CC(F)(F)C1 (single isomer, unassigned) [Example 46b, 3-cyclopropyl-1-((3,3-difluoro-1-methylcyclobutyl)methyl)-N-(5-(S-methylsulfonimidoyl)pyridin-3-yl)-4-(trifluoromethyl)-1H-pyrazole-5-carboxamide] | ≤ 100 nM
CC1(Cn2nc(C3CC3(F)F)c(C(F)(F)F)c2C(=O)Nc2ccnc(S(C)(=N)=O)c2)CC(F)(F)C1 (single isomer, unassigned) [Example 63b, 1-((3,3-Difluoro-1-methylcyclobutyl)methyl)-3-(2,2-difluorocyclopropyl)-N-(2-(S-methylsulfonimidoyl)pyridin-4-yl)-4-(trifluoromethyl)-1H-pyrazole-5-carboxamide] | ≤ 100 nM
CC1(Cn2nc(C(C)(F)F)c(C(F)(F)F)c2C(=O)Nc2ccnc(S(C)(=N)=O)c2)CC(F)(F)C1 (single isomer, unassigned) [Example 75b, 1-((3,3-difluoro-1-methylcyclobutyl)methyl)-3-(1,1-difluoroethyl)-N-(2-(S-methylsulfonimidoyl)pyridin-4-yl)-4-(trifluoromethyl)-1H-pyrazole-5-carboxamide] | ≤ 100 nM
CC1(Cn2nc(C34CC(C3)C4)c(C(F)F)c2C(=O)Nc2ccnc(S(C)(=N)=O)c2)CC(F)(F)C1 (single isomer, unassigned) [Example 137b, 3-(Bicyclo[1.1.1]pentan-1-yl)-1-((3,3-difluoro-1-methylcyclobutyl)methyl)-4-(difluoromethyl)-N-(2-(S-methylsulfonimidoyl)pyridin-4-yl)-1H-pyrazole-5-carboxamide] | ≤ 100 nM

The next lines start with the values.

IC50 | Compound
≤ 100 nM | CS(=N)(=O)c1cc(NC(=O)c2c(C(F)(F)F)c(C3CC3)nn2C[C@H]2CCC(F)(F)C2)ccn1 (single isomer, unassigned) [Example 17a]
≤ 100 nM | CC1(Cn2nc(C3(F)CC3)c(C(F)(F)F)c2C(=O)Nc2ccnc(S(C)(=N)=O)c2)CC(F)(F)C1 (single isomer, unassigned) [Example 70b, 1-((3,3-Difluoro-1-methylcyclobutyl)methyl)-3-(1-fluorocyclopropyl)-N-(2-(S-methylsulfonimidoyl)pyridin-4-yl)-4-(trifluoromethyl)-1H-pyrazole-5-carboxamide]
≤ 100 nM | C[S@](=N)(=O)c1cc(NC(=O)c2c(C(F)(F)F)c(C3CC3)nn2C[C@]2(C)C[C@H](C(F)(F)F)C2)ccn1 (single isomer, unassigned) [Example 86b, 3-cyclopropyl-1-(((trans)-1-methyl-3-(trifluoromethyl)cyclobutyl)methyl)-N-(2-(S-methylsulfonimidoyl)pyridin-4-yl)-4-(trifluoromethyl)-1H-pyrazole-5-carboxamide]
≤ 100 nM | CC1(Cn2nc(C3(F)CC3)c(C(F)(F)F)c2C(=O)Nc2cccc([S@@](C)(=O)=NC(=O)CO)c2)CC(F)(F)C1 [Example 151a]
≤ 100 nM | CC1(Cn2nc(C3(C)CC3)c(C(F)(F)F)c2C(=O)Nc2ccnc(S(C)(=N)=O)c2)CC(F)(F)C1 (single isomer, unassigned) [Example 69a, 1-((3,3-difluoro-1-methylcyclobutyl)methyl)-3-(1-methylcyclopropyl)-N-(2-(S-methylsulfonimidoyl)pyridin-4-yl)-4-(trifluoromethyl)-1H-pyrazole-5-carboxamide]
≤ 100 nM | C[S@](=N)(=O)c1cc(NC(=O)c2c(C(F)(F)F)c(C3CC3)nn2C[C@H]2CC23CC3)ccn1 (single isomer, unassigned) [Example 78d, 3-cyclopropyl-N-(2-(S-methylsulfonimidoyl)pyridin-4-yl)-1-(spiro[2.2]pentan-1-ylmethyl)-4-(trifluoromethyl)-1H-pyrazole-5-carboxamide]
≤ 100 nM | CS(=N)(=O)c1cc(NC(=O)c2c(C(F)(F)F)c(C3CC3)nn2CC2(C(F)(F)F)CCCC2)ccn1 (single isomer, unassigned) [Example 98a, 3-cyclopropyl-N-(2-(S-methylsulfonimidoyl)pyridin-4-yl)-4-(trifluoromethyl)-1-((1-(trifluoromethyl)cyclopentyl)methyl)-1H-pyrazole-5-carboxamide]
≤ 100 nM | C[S@](=N)(=O)c1cccc(NC(=O)c2c(C(F)(F)F)c(C3(F)CC3)nn2CC2C[C@@H]2C(F)(F)F)c1 (single isomer, unassigned) [Example 134b, 3-(1-Fluorocyclopropyl)-N-(3-(S-methylsulfonimidoyl)phenyl)-4-(trifluoromethyl)-1-(((trans)-2-(trifluoromethyl)cyclopropyl)methyl)-1H-pyrazole-5-carboxamide]

Reference: US12685726B2, “Sulfoximines as inhibitors of NaV1.8” (Gruenenthal GmbH, priority 2022, dated 2026)
